Results taken from patent US5462926A (Biomeasure, Inc., priority 1993, dated 1995).
Where two headings read alike, the source gives them in different places. Where a SMILES comes first, the peptide text is derived from it. Bridges are numbered along the chain shown (N, C = ends). [ ]: non-standard residue; d: D form. 2Nal = N[C@@H](Cc1ccc2ccccc2c1)C(=O)O; d2Nal = N[C@H](Cc1ccc2ccccc2c1)C(=O)O

How the values were obtained:
somatostatin receptors = biological target: T1, somatostatin receptors (Rattus norvegicus, UniProt P30680); test: Somatostatin membrane receptor assay, 125I-[Tyr11]SS-14, AR 42J cell membranes; assay type: binding; conditions: Cheng method; table prints no unit (b360 gives nM for a Table 4 value); read-out: affinity, 125I-[Tyr11]SS-14, AR 42J Cell Membranes (somatostatin receptors)
T1 construct: endogenous in cells; host or cells: rat AR 42J pancreatic acinar tumor cell membranes

[1] = biological target: T2, NMB receptors on C-6 cells (Rattus norvegicus, UniProt P24053); test: Binding of 125I-[D-Tyr0]NMB to C-6 glioblastoma cells; conditions: Ki by Cheng method, read-out: Ki 125I-NMB Binding, NMB Receptor, C-6 Cells
T2 construct: endogenous in cells; host or cells: rat glioblastoma C-6 cells
T2 sequence (P24053 1-390): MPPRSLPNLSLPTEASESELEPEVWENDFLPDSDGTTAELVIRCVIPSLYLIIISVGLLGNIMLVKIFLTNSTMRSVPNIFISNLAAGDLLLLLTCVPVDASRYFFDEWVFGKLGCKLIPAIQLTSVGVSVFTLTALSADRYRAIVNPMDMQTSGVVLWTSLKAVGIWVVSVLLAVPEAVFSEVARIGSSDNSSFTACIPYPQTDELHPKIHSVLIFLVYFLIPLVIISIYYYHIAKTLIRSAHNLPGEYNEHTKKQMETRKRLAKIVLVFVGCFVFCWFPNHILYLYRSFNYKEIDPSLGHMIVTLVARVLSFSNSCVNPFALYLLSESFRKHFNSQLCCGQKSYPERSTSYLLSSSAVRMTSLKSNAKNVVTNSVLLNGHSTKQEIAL
Method: Binding of ^125 I-[D-Tyr^0 ]NMB to C-6 glioblastoma and NMB-R transfected cells
Binding studies using rat glioblastoma C-6 or NMB-R transfected cells were performed as described previously [Benya, R. V. et al. Mol. Pharmacol. 42:1058 (1992); and Wang, L-H. et al. Biochem. J. 286:641 (1992)] by suspending disaggregated cells in binding buffer, which was composed of standing buffer ([…], 7.7 mM KCl, 1.0 mM EGTA, 0.02% soybean trypsin inhibitor) additionally containing 50 mM HEPES, 1 mM MgCl2, 1.5 mM CaCl2, 2.2 mM KH2 PO4, 0,015% glutamine, and 0.2% BSA (w/v) (pH 7.4). Incubations contained 75 pM ^125 I-[D-Tyr^0 ]NMB and 15×10^6 C-6 cells/ml or 2×10^6 NMB-R transfected cells/ml, for 60 min at 22° C. Nonsaturable binding of ^125 I-[D-Tyr^0 ]NMB was the amount of radioactivity associated with C-6 cells or NMB-R transfected cells when the incubation mixture contained […] NMB. Nonsaturable binding was<15% of total binding in all experiments; all values are reported herein as saturable binding (i.e., total minus nonsaturable binding).

rat NMB receptor = biological target: T3, rat NMB receptor (Rattus norvegicus, UniProt P24053); test: Binding of 125I-[D-Tyr0]NMB to NMB-R transfected BALB 3T3 cells; conditions: for fold decrease in NMB receptor affinity compared with cyclo SS-octa (#1): structure-function comparison from Table 1
T3 construct: a full length NMB-preferring bombesin receptor clone generated from rat esophagus; expressed in transfected cells
T3 sequence (P24053 1-390): T2 sequence (P24053 1-390)
Method: Cells were passaged every 3-4 days at confluence, using 0.1% trypsin in 1 mM EDTA. Rat glioblastoma C-6 tumor cells were maintained similarly and were passaged weekly at confluence. Both cell lines were cultured at 37° C. in a 5% CO2 atmosphere. Rat AR 42J pancreatic acinar cells were cultured in Dulbecco's modified Eagle's medium (DMEM) without antibiotics and supplemented with 10% (vol/vol) fetal calf serum. The incubation atmosphere consisted of 10% CO2 -90% humidified air at 37° C.

[2] = biological target: T4, GRP receptors on rat pancreatic acini (Rattus norvegicus, UniProt P52500); test: Binding of 125I-[Tyr4]bombesin to pancreatic acini; conditions: read-out: Ki 125I-[Tyr4]Bn Binding, GRP Receptor, Rat Pancreatic Acini; Ki by Cheng method
T4 construct: from tissue; host or cells: dispersed pancreatic acini
Excerpt: Nonsaturable binding was<10% of total binding in all experiments.

GRP receptor = GRP receptor (Rattus norvegicus, UniProt P52500); test: Amylase release from rat pancreatic acini (alone or Bn-stimulated); assay type: cell-based; parameters: from tissue; host or cells: dispersed pancreatic acini; conditions: for Amylase Release, analog Alone (10 μM): analog 10 μM alone, control 4 ± 1; for Amylase Release, analog Plus Bn (0.3 nM): analog 10 μM plus Bn 0.3 nM, Bn without analog 15 ± 1; for IC50: read-out: IC50 Amylase Release, GRP Receptor, Rat Pancreatic Acini
Method: pancreatic acini or [^3 H]myo[2H]inositolloaded NMBR transfected cell
were incubated either with no additives, the somatostatin octapeptide
analog, Bn, or NMB, or a combination for 30 min at 37° C.. Amylase
release from pancreatic acini was expressed at the indicated percent of
the total cellular amylase released during the incubation. [^3 H]IP i
expressed in dpm's. To test for inhibitory effects, the effect of
somatostatin analog (10 μM) was determined on 0.3 nM Bnstimulated

[3] = NMB-R transfected BALB 3T3 cells, Ki by Cheng method, read-out: Ki 125I-NMB Binding, NMB Receptor, Transfected Cells
[4] = NMB-R transfected cells, value or range given for a group, read-out: K1, 125I-NMB binding to NMB-R transfected cells (text)

GRP receptor, sequence (P52500 whole entry): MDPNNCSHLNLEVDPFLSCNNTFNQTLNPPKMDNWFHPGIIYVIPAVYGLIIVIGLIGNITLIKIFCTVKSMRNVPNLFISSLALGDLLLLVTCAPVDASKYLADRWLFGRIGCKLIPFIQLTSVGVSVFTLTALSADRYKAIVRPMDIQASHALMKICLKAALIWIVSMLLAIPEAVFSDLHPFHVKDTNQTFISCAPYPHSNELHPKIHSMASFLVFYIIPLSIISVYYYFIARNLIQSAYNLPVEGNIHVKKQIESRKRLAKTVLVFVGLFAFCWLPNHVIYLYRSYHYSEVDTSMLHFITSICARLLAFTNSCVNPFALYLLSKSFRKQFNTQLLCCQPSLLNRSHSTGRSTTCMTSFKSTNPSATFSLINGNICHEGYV
T4 sequence (P52500 whole entry): as above
T1 sequence (P30680 whole entry): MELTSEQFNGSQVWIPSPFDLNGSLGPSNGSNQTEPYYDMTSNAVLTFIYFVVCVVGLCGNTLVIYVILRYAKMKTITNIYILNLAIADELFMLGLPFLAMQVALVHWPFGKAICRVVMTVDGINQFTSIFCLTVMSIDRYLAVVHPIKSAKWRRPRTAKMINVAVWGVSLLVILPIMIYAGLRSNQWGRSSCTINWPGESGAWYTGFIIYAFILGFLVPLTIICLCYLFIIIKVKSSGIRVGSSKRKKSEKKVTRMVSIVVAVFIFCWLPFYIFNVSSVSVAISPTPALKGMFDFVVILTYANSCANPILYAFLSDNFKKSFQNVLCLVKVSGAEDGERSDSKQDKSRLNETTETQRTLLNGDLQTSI

Compound	Ki (somatostatin receptors)	Ki [1]	Ki (rat NMB receptor; [3])	fold by which cyclo SS-octa is more potent than the analog, 125I-NMB binding (rat NMB receptor; NMB-R transfected cells)	fold decrease in NMB receptor affinity compared with cyclo SS-octa (#1) (rat NMB receptor)	Ki [2]	Amylase Release, analog Alone (10 μM) (GRP receptor)	Amylase Release, analog Plus Bn (0.3 nM) (GRP receptor)	IC50 (GRP receptor)	Ki (rat NMB receptor; [4])
NCCCC[C@@H]1NC(=O)[C@@H](Cc2c[nH]c3ccccc23)NC(=O)[C@H](Cc2ccc(O)cc2)NC(=O)[C@@H](NC(=O)[C@H](N)Cc2ccc3ccccc3c2)CSSC[C@@H](C(=O)N[C@@H](Cc2ccc3ccccc3c2)C(N)=O)NC(=O)[C@H](Cc2ccccc2)NC1=O [Analog #13, H2 -D-Nal-Cys-Tyr-D-Trp-Lys-Phe-Cys-Nal-NH2] (H-[d2Nal]CY[dW]KFC[2Nal]-NH2; disulfide 2-7)	194 ± 27 nM	0.213 ± 0.013 µM	0.397 ± 0.072 µM	2 fold	2 to 3 fold	> 10 µM	3 ± 1 % total	14 ± 1 % total	> 10 µM	–
CC(C)[C@@H]1NC(=O)[C@H](CCCCN)NC(=O)[C@@H](Cc2c[nH]c3ccccc23)NC(=O)[C@H](Cc2ccc(O)cc2)NC(=O)[C@@H](NC(=O)[C@H](N)Cc2ccc3ccccc3c2)CSSC[C@@H](C(=O)N[C@H](Cc2ccc3ccccc3c2)C(N)=O)NC1=O [Analog #8, H2 -D-Nal-Cys-Tyr-D-Trp-Lys-Val-Cys-D-Nal-NH2] (H-[d2Nal]CY[dW]KVC[d2Nal]-NH2; disulfide 2-7)	3.9 ± 0.1 nM	0.67 ± 0.073 µM	1.92 ± 0.201 µM	9 fold	6 fold	> 10 µM	2 ± 1 % total	14 ± 1 % total	> 10 µM	1.4 to 2.3 µM
C[C@@H](O)[C@H](NC(=O)[C@@H]1CSSC[C@H](NC(=O)[C@H](N)Cc2ccc3ccccc3c2)C(=O)N[C@@H](Cc2ccc(O)cc2)C(=O)N[C@H](Cc2c[nH]c3ccccc23)C(=O)N[C@@H](CCCCN)C(=O)N[C@@H](Cc2ccc3ccccc3c2)C(=O)N1)C(N)=O [Analog #2, H2 -D-Nal-Cys-Tyr-D-Trp-Lys-Nal-Cys-Thr-NH2]	0.5 ± 0.1 nM	0.226 ± 0.036 µM	0.772 ± 0.094 µM	–	4 fold	16.3 ± 3.82 µM	5 ± 1 % total	13 ± 1 % total	> 10 µM	–
CC(C)[C@@H]1NC(=O)[C@H](CCCCN)NC(=O)[C@@H](Cc2c[nH]c3ccccc23)NC(=O)[C@H](Cc2ccc(O)cc2)NC(=O)[C@@H](NC(=O)[C@@H](N)Cc2ccc3ccccc3c2)CSSC[C@@H](C(=O)N[C@H](Cc2ccc3ccccc3c2)C(N)=O)NC1=O [Analog #9, H2 -Nal-Cys-Tyr-D-Trp-Lys-Val-Cys-D-Nal-NH2] (H-[2Nal]CY[dW]KVC[d2Nal]-NH2; disulfide 2-7)	2.8 ± 0.7 nM	1.16 ± 0.214 µM	1.16 ± 0.229 µM	–	–	> 10 µM	3 ± 1 % total	16 ± 1 % total	> 10 µM	–
C[C@@H](O)[C@@H]1NC(=O)[C@H](CCCCN)NC(=O)[C@@H](Cc2c[nH]c3ccccc23)NC(=O)[C@H](Cc2ccc(O)cc2)NC(=O)[C@@H](NC(=O)[C@H](N)Cc2ccccc2)CSSC[C@@H](C(=O)N[C@@H](Cc2ccc3ccccc3c2)C(N)=O)NC1=O [Analog #7, H2 -D-phe-Cys-Tyr-D-Trp-Lys-Thr-Cys-Nal-NH2] (H-[dF]CY[dW]KTC[2Nal]-NH2; disulfide 2-7)	0.86 ± 0.23 nM	1.45 ± 0.078 µM	4.36 ± 0.328 µM	18 fold	–	31 ± 4.65 µM	3 ± 1 % total	16 ± 1 % total	> 10 µM	3.9 to 4.4 µM
CC(C)[C@@H]1NC(=O)[C@H](Cc2c[nH]cn2)NC(=O)[C@@H](Cc2c[nH]c3ccccc23)NC(=O)[C@H](Cc2ccc(O)cc2)NC(=O)[C@@H](NC(=O)[C@H](N)Cc2ccc3ccccc3c2)CSSC[C@@H](C(=O)N[C@@H](Cc2ccc3ccccc3c2)C(N)=O)NC1=O [Analog #14] (H-[d2Nal]CY[dW]HVC[2Nal]-NH2; disulfide 2-7; N-terminus assumed)	1870 ± 30 nM	4.94 ± 0.93 µM	9.86 ± 1.29 µM	45 fold	50 fold	> 10 µM	2 ± 1 % total	13 ± 1 % total	> 10 µM	–
CC(C)[C@@H]1NC(=O)[C@H](CCCCN)NC(=O)[C@@H](Cc2c[nH]c3ccccc23)NC(=O)[C@H](Cc2ccc(O)cc2)NC(=O)[C@H](NC(=O)[C@H](N)Cc2ccc3ccccc3c2)CSSC[C@@H](C(=O)N[C@@H](Cc2ccc3ccccc3c2)C(N)=O)NC1=O [Analog #10, H2 -D-Nal-D-Cys-Tyr-D-Trp-Lys-Val-Cys-Nal-NH2] (H-[d2Nal][dC]Y[dW]KVC[2Nal]-NH2; disulfide 2-7)	91 ± 23 nM	1.15 ± 0.518 µM	0.96 ± 0.109 µM	–	5 fold	> 10 µM	3 ± 1 % total	16 ± 1 % total	> 10 µM	–
CC(C)[C@@H]1NC(=O)[C@H](CCCCN)NC(=O)[C@@H](Cc2c[nH]c3ccccc23)NC(=O)[C@H](Cc2ccc(O)cc2)NC(=O)[C@@H](NC(=O)[C@H](N)Cc2ccccc2)CSSC[C@@H](C(=O)N[C@@H](Cc2ccc3ccccc3c2)C(N)=O)NC1=O [Analog #4, H2 -D-Phe-Cys-Tyr-D-Trp-Lys-Val-Cys-Nal-NH2] (H-[dF]CY[dW]KVC[2Nal]-NH2; disulfide 2-7)	0.24 ± 0.13 nM	0.848 ± 0.191 µM	0.818 ± 0.068 µM	–	4 to 7 fold	21.9 ± 4.26 µM	4 ± 2 % total	14 ± 1 % total	> 10 µM	–
CC(C)[C@@H]1NC(=O)[C@H](CCCCN)NC(=O)[C@@H](Cc2ccc3ccccc3c2)NC(=O)[C@H](Cc2ccc(O)cc2)NC(=O)[C@@H](NC(=O)[C@H](N)Cc2ccc3ccccc3c2)CSSC[C@@H](C(=O)N[C@@H](Cc2ccc3ccccc3c2)C(N)=O)NC1=O [Analog #17, H2 -D-Nal-Cys-Tyr-D-Nal-Lys-Val-Cys-Nal-NH2] (H-[d2Nal]CY[d2Nal]KVC[2Nal]-NH2; disulfide 2-7)	570 ± 180 nM	0.313 ± 0.033 µM	0.399 ± 0.068 µM	2 fold	–	> 10 µM	4 ± 2 % total	19 ± 1 % total	> 10 µM	–
